Experimental data published in ChEMBL document CHEMBL1136370, “Structure-activity relationship on human serum paraoxonase (PON1) using substrate analogues and inhibitors” (Bioorg Med Chem Lett, 2003).

Columns and labels:
PON1 = assay: Time taken for 50% to be consumed by serum PON1 was determined; assay type: ADME; conditions: human
[1] = target: T1, Serum paraoxonase/arylesterase 1 (Homo sapiens, UniProt P27169); assay: Inhibitory activity against human serum paraoxonase (PON1); Not active
[2] = Time taken for 50% to be consumed by serum PON1; NH is Not hydrolysed; assay type: ADME; conditions: human
[3] = target: T1, Serum paraoxonase/arylesterase 1; assay: Inhibitory activity against human serum paraoxonase (PON1)

T1 sequence (P27169 whole entry): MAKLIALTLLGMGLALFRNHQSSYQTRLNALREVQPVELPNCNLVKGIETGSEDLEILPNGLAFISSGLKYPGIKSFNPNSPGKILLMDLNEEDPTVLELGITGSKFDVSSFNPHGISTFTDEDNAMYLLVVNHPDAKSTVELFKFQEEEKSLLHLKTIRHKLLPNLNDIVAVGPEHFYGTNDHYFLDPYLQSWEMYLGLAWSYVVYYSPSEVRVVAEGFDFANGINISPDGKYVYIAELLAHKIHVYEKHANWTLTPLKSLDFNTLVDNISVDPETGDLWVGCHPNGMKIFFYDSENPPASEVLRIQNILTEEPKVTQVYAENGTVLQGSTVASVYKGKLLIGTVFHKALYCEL

CC(=O)Oc1ccc(N)cc1
half-life (PON1): 20 min | IC50 [1]: Not Active

COc1ccc(OC(C)=O)cc1
half-life (PON1): 20 min | IC50 [1]: Not Active

CCOP(=O)(OCC)Oc1ccc(N)cc1
T1/2 [2]: Not hydrolysed | IC50 [3]: 1.28 mM

CC(=O)Oc1ccc([N+](=O)[O-])cc1 [4-NITROPHENYL ACETATE]
half-life (PON1): 3.5 min | IC50 [1]: Not Active

CC(=O)Oc1ccccc1 [ACETIC ACID PHENYL ESTER]
half-life (PON1): 1.5 min | IC50 [1]: Not Active

CCOP(=O)(OCC)Oc1ccc([N+](=O)[O-])cc1 [PARAOXON]
half-life (PON1): 1460 min | IC50 [1]: Not Active

O=P(O)(O)Oc1ccccc1 [PHENYL DIHYDROGEN PHOSPHATE]
T1/2 [2]: Not hydrolysed | IC50 [3]: 3.25 mM

CCOP(=O)(OCC)Oc1ccccc1 [PHOSPHORIC ACID DIETHYL ESTER PHENYL ESTER]
T1/2 [2]: Not hydrolysed | IC50 [3]: 3.27 mM

O=[N+]([O-])c1ccc(OP(=O)(O)O)cc1 [p-NITROPHENYLPHOSPHATE]
T1/2 [2]: Not hydrolysed | IC50 [3]: 18.5 mM
